The star is where a group is joined. Decanoyl = CCCCCCCCCC(=O)*
Columns and labels:
Type in all cases: cell-based
HeLa cells [1] = experiment: Cytosolic entry efficiency of NF-labelled peptides by flow cytometry; conditions: for Cellular Entry Efficiency In 1% FBS: relative to CPP12 (100%)
HeLa cells [2] = experiment: Cytotoxicity by the MTT assay; conditions: no label, up to 40 μM concentration
Source text: CPP1-15 (no label) was used as a representative and tested against HeLa cells for potential cytotoxicity by the MTT assay.

HeLa cells [3] = experiment: Cytosolic entry efficiency of NF-labelled peptides by flow cytometry; conditions: for Cellular Entry Efficiency In 10% FBS: 2 h, relative to CPP12 (100%)
Procedure: All of the peptides were labeled with naphthofluorescein (NF) at the Gln side chain through a long, flexible linker, miniPEG-Lys. HeLa cells were treated with 5 μM peptide for 2 h in the presence of 10% FBS and the cytosolic entry of the peptides was quantitated by flow cytometry analysis.
To determine cellular uptake efficiency of the CPPs disclosed herein, HeLa cells were cultured in 12-well plates (1.5×10^5 cells per well) overnight. The cells were incubated for 2 h with […] naphthofluorescein (NF)-labelled peptide in cellular media. At the end of incubation, the cells were washed with DPBS twice, detached from the plate with 0.25% trypsin, diluted into clear DMEM, pelleted at 250 g for 5 min, washed twice with DPBS, resuspended in DPBS, and analyzed on a BD FACS LSR II flow cytometer. For NF-labelled peptides, a 633-nm laser was used for excitation and the fluorescence emission was analyzed in the APC channel. Absolute cellular uptake efficiency was determined by comparing the concentration (via fluorescence intensity) of the CPP in the cytosol to the concentration in the extracellular medium. Relative cellular uptake efficiency was determined by comparing the cytosolic concentration of the CPP to that cytosolic concentration of the control CPP cyclo(FΦRRRRQ).

HeLa cells [4] = experiment: Cellular entry by live-cell confocal imaging of FITC-labelled peptides; conditions: 5 μM FITC-labelled peptide, 2 h
Procedure: CPP1-15 and CPP1-20 were labeled with FITC via a miniPEG-Lys linker. HeLa cells were treated with 5 μM peptide for 2 h, washed, and imaged by live-cell confocal imaging. […] Additional experiments are ongoing to further examine their mechanism of cell entry.

## cyclo(Lys^DecaRRRRQ) (cyclo(K(Decanoyl)RRRRQ); SMILES CCCCCCCCCC(=O)NCCCC[C@@H]1NC(=O)[C@H](CCC(N)=O)NC(=O)[C@H](CCCNC(=N)N)NC(=O)[C@H](CCCNC(=N)N)NC(=O)[C@H](CCCNC(=N)N)NC(=O)[C@H](CCCNC(=N)N)NC1=O) [CPP1-15]
HeLa cells [1]; Table 4, NF-labelled peptide
  Cellular Entry Efficiency In 1% FBS: 44 ± 11%
HeLa cells [1]; Table 7, NF-labelled peptide
  Cellular Entry Efficiency In 1% FBS: 44 ± 11%
HeLa cells [1]; reduced serum concentration (1% FBS), CPP12 most active
  cytosolic entry efficiency: 43%
HeLa cells [2]
  cytotoxicity: did not show significant cytotoxicity
HeLa cells [3]; 10% vs 1% FBS, compared with CPP9 or CPP12
  sensitivity to serum concentration: lower sensitivity to serum concentration
HeLa cells [3]; Table 4, 5 μM NF-labelled peptide
  Cellular Entry Efficiency In 10% FBS: 76 ± 21%
HeLa cells [3]; Table 7, 5 μM NF-labelled peptide
  Cellular Entry Efficiency In 10% FBS: 76 ± 21%
HeLa cells [3]; variant of CPP1-4
  CPP activity compared with CPP1-4 (in words): slightly increased the CPP activity
HeLa cells [4]
  cellular entry (confocal imaging): entered HeLa cells efficiently

Reference: patent publication US11987647B2, “Cyclic cell-penetrating peptides with one or more hydrophobic residues” (Ohio State Innovation Foundation, priority 2018, dated 2024)
